Source: ChEMBL document CHEMBL1156598 (J Med Chem, 2008)

Assays:
Cytochrome P450 3A4 = Cytochrome P450 3A4 (Homo sapiens, UniProt P08684); experiment: Inhibition of recombinant CYP3A4 expressed in baculovirus-infected insect microsomes; assay type: ADME, Microsome
[1] = biological target: T1, Cytochrome P450 11B1, mitochondrial (Homo sapiens, UniProt P15538); experiment: Inhibition of human CYP11B1 expressed in hamster V79MZh11B1 cells; assay type: cell-based
T1 sequence (P15538 whole entry): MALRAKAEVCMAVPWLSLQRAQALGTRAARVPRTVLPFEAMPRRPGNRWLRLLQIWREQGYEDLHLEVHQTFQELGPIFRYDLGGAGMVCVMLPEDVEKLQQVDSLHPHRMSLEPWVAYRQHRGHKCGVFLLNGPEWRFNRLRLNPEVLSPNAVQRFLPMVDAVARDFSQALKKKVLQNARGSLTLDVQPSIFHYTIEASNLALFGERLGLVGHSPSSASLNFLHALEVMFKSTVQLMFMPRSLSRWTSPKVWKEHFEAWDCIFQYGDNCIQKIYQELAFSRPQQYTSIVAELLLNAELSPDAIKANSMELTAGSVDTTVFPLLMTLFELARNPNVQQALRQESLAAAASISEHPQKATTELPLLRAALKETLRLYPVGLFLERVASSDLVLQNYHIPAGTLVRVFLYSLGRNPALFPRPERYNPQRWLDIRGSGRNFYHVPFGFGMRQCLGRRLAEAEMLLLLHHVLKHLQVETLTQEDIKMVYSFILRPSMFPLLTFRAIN

[2] = biological target: T2, Cytochrome P450 11B2, mitochondrial (Homo sapiens, UniProt P19099); experiment: Inhibition of human CYP11B2 expressed in hamster V79MZh11B2 cells; assay type: cell-based
T2 sequence (P19099 whole entry): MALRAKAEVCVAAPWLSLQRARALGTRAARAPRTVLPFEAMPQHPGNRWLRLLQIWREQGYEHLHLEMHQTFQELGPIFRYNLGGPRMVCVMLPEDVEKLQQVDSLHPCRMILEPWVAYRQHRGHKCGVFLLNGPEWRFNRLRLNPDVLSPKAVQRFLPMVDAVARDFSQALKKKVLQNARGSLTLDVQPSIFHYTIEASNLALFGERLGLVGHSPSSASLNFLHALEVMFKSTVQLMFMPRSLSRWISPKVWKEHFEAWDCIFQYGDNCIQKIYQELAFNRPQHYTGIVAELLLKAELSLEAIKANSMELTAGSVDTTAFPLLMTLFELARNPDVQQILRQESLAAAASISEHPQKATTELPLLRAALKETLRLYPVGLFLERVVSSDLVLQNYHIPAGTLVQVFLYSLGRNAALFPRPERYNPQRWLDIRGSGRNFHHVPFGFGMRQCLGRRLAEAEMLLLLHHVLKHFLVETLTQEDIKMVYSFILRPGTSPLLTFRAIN

[3] = biological target: T3, Steroid 17-alpha-hydroxylase/17,20 lyase (Homo sapiens, UniProt P05093); experiment: Inhibition of human recombinant CYP17 expressed in Escherichia coli coexpressing NADPH-P450 reductase
T3 sequence (P05093 whole entry): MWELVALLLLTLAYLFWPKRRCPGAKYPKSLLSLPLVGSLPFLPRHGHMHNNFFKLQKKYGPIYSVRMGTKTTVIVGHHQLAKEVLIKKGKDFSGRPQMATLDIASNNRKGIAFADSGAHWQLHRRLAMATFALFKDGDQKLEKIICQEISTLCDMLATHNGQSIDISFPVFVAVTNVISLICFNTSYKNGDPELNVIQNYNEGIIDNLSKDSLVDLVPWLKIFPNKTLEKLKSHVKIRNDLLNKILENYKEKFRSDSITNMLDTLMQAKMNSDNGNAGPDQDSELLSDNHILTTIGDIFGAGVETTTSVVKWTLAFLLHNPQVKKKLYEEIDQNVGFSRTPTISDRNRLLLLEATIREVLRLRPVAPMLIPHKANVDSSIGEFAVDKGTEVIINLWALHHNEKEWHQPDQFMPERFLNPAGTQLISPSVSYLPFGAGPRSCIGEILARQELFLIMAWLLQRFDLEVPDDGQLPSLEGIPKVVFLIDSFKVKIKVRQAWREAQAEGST

Sequence of Cytochrome P450 3A4 (P08684 whole entry): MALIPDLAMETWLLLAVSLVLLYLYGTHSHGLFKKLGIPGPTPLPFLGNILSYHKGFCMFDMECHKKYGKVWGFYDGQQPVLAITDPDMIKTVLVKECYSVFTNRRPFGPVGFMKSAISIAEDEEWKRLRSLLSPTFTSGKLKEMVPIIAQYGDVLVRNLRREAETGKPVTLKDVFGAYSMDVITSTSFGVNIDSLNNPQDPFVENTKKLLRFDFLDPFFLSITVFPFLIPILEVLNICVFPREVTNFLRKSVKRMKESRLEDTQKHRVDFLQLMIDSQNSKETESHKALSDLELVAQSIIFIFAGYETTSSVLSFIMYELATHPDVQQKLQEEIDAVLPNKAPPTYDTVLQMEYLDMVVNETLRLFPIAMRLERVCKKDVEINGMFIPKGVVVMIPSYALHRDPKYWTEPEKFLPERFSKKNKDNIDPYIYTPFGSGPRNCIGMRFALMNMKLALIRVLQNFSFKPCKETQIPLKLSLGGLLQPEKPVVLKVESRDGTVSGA

SMILES | IC50 (Cytochrome P450 3A4) | IC50 [1] | IC50 [2] | IC50 [3]
Fc1ccc(-c2ccc3c(c2)CCC=C3c2ccncc2)cc1F | 3.64 µM | > 20 µM | 0.311 µM | > 5 µM
Oc1ccc(-c2ccc3c(c2)CCC=C3c2ccncc2)cc1O | 0.357 µM | – | – | –
OC1(c2cccnc2)CCc2cc(-c3ccc(F)cc3)ccc21 (stereo unspecified) | > 20 µM | – | – | –
OC1(c2ccncc2)CCc2cc(-c3ccc(F)cc3)ccc21 (stereo unspecified) | 3.23 µM | – | – | –
Fc1ccc(-c2ccc3c(c2)CCC3c2cccnc2)cc1 (stereo unspecified) | 1.7 µM | – | – | > 20 µM
COc1ccc(-c2ccc3c(c2)CCC3(O)c2ccncc2)cc1F (stereo unspecified) | 3.36 µM | 0.291 µM | 0.436 µM | > 10 µM
Fc1ccc(-c2ccc3c(c2)CCC=C3c2ccncc2)cc1 | 4.2 µM | – | – | –
Fc1ccc(-c2ccc3c(c2)CC=C3c2cccnc2)cc1 | 6.95 µM | – | – | 2.35 µM
Fc1ccc(-c2ccc3c(c2)CCCC3c2ccncc2)cc1 (stereo unspecified) | 2.17 µM | > 5 µM | 0.518 µM | 0.163 µM
COc1ccc(-c2ccc3c(c2)CCCC3(O)c2ccncc2)cc1F (stereo unspecified) | 15.2 µM | 0.686 µM | 0.945 µM | > 5 µM
OC1(c2ccncc2)CCCc2cc(-c3ccc(F)cc3)ccc21 (stereo unspecified) | 8.76 µM | 1.16 µM | 0.84 µM | 0.587 µM
C[C@]12CC[C@H](O)CC1=CC[C@@H]1[C@@H]2CC[C@]2(C)C(c3cccnc3)=CC[C@@H]12 [ABIRATERONE] | – | – | 1.75 µM | –
Fc1ccc(-c2ccc3c(c2)CCC3c2ccncc2)cc1 (stereo unspecified) | 1.09 µM | 1.08 µM | 0.543 µM | 0.233 µM
COc1ccc(-c2ccc3c(c2)CCC3(O)c2ccncc2)cc1 (stereo unspecified) | 3.29 µM | – | – | –
COc1ccc(-c2ccc3c(c2)CC=C3c2ccncc2)cc1 | 2.39 µM | – | – | –
OC1(c2ccncc2)CCCc2cc(-c3ccc(F)c(F)c3)ccc21 (stereo unspecified) | 13.8 µM | – | – | –
Fc1ccc(-c2ccc3c(c2)CC=C3c2ccncc2)cc1 | 0.159 µM | – | – | –
Oc1ccc(-c2ccc3c(c2)CCCC3c2ccncc2)cc1O (stereo unspecified) | 0.632 µM | – | – | –
Oc1ccc(-c2ccc3c(c2)CCCC3c2ccncc2)cc1F (stereo unspecified) | 3.39 µM | 1.37 µM | 0.587 µM | 0.064 µM
Oc1ccc(-c2ccc3c(c2)CCC=C3c2ccncc2)cc1F | 2.11 µM | 2.75 µM | 0.991 µM | 0.188 µM
